Results taken from ChEMBL document CHEMBL1201862, “PubChem BioAssay data set” (2004).
Activity calls are given as the source filed them.

How the values were obtained:
Kallikrein-7 = Kallikrein-7 (Homo sapiens, UniProt P49862); test: Fluorescence Intensity-based biochemical primary high throughput dose response assay to identify activators of kallikrein-7 (K7) zymogen.
[1] = target: Peroxisome proliferator-activated receptor gamma/Nuclear receptor coactivator 3 (Homo sapiens, UniProt P37231); test: (§1) TR-FRET dose response biochemical High Throughput Screening assay for agonists of the steroid receptor coactivator 3 (SRC-3) recruitment by the peroxisome proliferator-activated receptor gamma (PPAR gamma): non-selective agonists. [Related pubchem assays: 1301 (Confirmation screen.), 1048 (Primary screen.)]; format: functional
[2] = target: Peroxisome proliferator-activated receptor gamma/Nuclear receptor coactivator 1 (Homo sapiens, UniProt P37231); test: as §1, with “1 (SRC-1)” for “3 (SRC-3)”, “assays (depositor defined):AID1300, AID1808, AID504735, AID631]” for “assays: 1301 (Confirmation screen.), 1048 (Primary screen.)]”; format: protein assay
[3] = cytotoxicity toward NIH3T3 fibroblasts, dose response, counter-screen, cell-based, ATP luminescence, mouse fibroblasts (AID 2010); format: functional;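 also: cells exposed to compound for about 90 hours before reading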
[4] = inhibitors of intracellular T. cruzi replication, confirmation, NIH3T3 host cells, beta-gal luminescence (AID 2044); format: functional, cell-based;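 also: intracellular parasites grown in NIH/3T3 mouse fibroblasts as host cells; luminescent beta-galactosidase reporter signal from transgenic T. cruzi replicating inside host cells; inhibitors lower the luminescence signal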
[5] = target: Peroxisome proliferator-activated receptor gamma/Nuclear receptor coactivator 2 (Homo sapiens, UniProt P37231); test: TR-FRET dose response biochemical High Throughput Screening assay for agonists of the steroid receptor coactivator 2 (SRC-2) recruitment by the peroxisome proliferator-activated receptor gamma (PPAR gamma): non-selective agonists. [Related pubchem assays: 1297, 1032 ]; format: functional
[6] = A Cell Based Secondary Assay To Explore Cytotoxicity of Compounds that Sensitize Mycobacterium Tuberculosis to Beta-Lactam Antibiotics.; format: functional
[7] = Shn3 3'UTR reporter inhibitors, dose response, cell-based, Clone20 osteoblasts, firefly luciferase, cherry-picked (AID 624132); format: functional;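 also: firefly luciferase luminescence from reporter carrying the Shn3 3'UTR in osteoblasts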
HEK293 [8] = test: NOD1 signaling inhibitors, primary screen, cell-based, luminescence, uHTS (AID 1578); format: functional; conditions: Homo sapiens
[9] = control 3'UTR Renilla luciferase suppression, dose response, counter-screen for Shn3 inhibitor project, cell-based, Clone20-Shn3RL, cherry-picked (AID 624133); format: functional
[10] = target: T1, COUP transcription factor 2 (Homo sapiens, UniProt P24468); test: Luminescence-based cell-based high throughput dose response assay to identify inhibitors of COUP-TFII (NR2F2).; format: functional;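 also: HEK293 cells transiently cotransfected with COUP-TFII expression vector and reporter; luciferase reporter luminescence driven by COUP-TFII from the pX2-168 reporter plasmid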
T1 sequence (P24468 whole entry): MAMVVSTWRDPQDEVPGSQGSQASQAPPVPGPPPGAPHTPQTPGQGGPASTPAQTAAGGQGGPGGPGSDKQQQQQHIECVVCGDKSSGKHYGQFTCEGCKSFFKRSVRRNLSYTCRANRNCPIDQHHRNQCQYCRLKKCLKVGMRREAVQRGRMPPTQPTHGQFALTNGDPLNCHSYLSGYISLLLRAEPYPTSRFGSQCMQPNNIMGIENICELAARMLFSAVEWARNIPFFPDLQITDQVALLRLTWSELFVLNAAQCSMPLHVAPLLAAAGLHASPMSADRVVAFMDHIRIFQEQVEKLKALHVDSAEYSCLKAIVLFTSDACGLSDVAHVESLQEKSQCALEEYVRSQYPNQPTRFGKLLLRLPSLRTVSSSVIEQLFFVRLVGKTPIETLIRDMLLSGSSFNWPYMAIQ

[11] = HepG2 cell cytotoxicity, dose response, cytotoxicity control for Shn3 inhibitor project, CellTiter-Glo, cherry-picked (AID 624134); format: functional, cell-based
HEK293 [12] = test: NOD2 signaling inhibitors in MDP-stimulated cells, cell-based, uHTS, luminescence (AID 2001); format: functional; conditions: Homo sapiens
HEK293 [13] = test: cells; format: functional, cell-based; conditions: Homo sapiens
HEK293 [14] = test: cells; format: functional, cell-based; conditions: Homo sapiens; remark: listed apart in the source
[15] = target: Voltage-dependent T-type calcium channel subunit alpha-1H (Homo sapiens, UniProt O95180); format: functional;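 also: channel activity triggered by adding a high calcium stimulation buffer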
[16] = HEp-2 cell cytotoxicity, dose response, cytotoxicity control for RSV inhibitor project, HTS (AID 2410); format: functional; conditions: human respiratory syncytial virus
[17] = target: FAD-linked sulfhydryl oxidase ALR (Homo sapiens, UniProt P55789); test: inhibitors of human ALR sulfhydryl oxidase, dose response, biochemical, H2O2 detection, luminescence, cherry-pick (AID 493248)
[18] = A cytotoxicity screen of small molecule inhibitors of the PhoP region in Salmonella typhi identified in the primary screen. [Related pubchem assays: 1850, 1864, 1985 ]; format: functional
[19] = off-target signal loss in HeLa-CEM21 co-culture – HeLa F-luc CTL cells, cherry-picked, counter-screen for HIV-1 Env fusion inhibitor project, dose response (AID 652040); format: functional, cell-based;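 also: potency for signal decrease marking cytotoxic or nonspecific inhibition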
[20] = ZM109 Env clade C HIV-1 fusion inhibitors, dose response, HeLa effector, CEM target cells, luciferase, cherry-pick (AID 652058); format: functional, cell-based
[21] = inhibitors of clade B AD8 Env fusion, dose response, cell-based, cherry-pick (AID 652062); format: functional;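 also: luciferase signal from cell-cell fusion driven by HIV-1 clade B AD8 Env; potency is for inhibitors of fusion seen as a drop in luminescence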
[22] = inhibitors of HIV Env-driven cell fusion, dose response, cherry-pick (AID 652057); format: functional, cell-based
Cytochrome P450 2C19 = Cytochrome P450 2C19 (Homo sapiens, UniProt P33261); test: Cytochrome panel assay with activity outcomes. Panel member name: p450-cyp2c19 Compounds with AC50 equal or less than 10 uM are considered active; format: functional
Cytochrome P450 3A4 = Cytochrome P450 3A4 (Homo sapiens, UniProt P08684);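 also: CYP3A4 tested as one member of a cytochrome P450 panel screen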
[23] = target: T2, Mannose-6-phosphate isomerase (Homo sapiens, UniProt P34949); test: human PMI inhibitors, high substrate, primary screen, biochemical, fluorescence intensity, high mannose 6-phosphate (AID 1220)
T2 sequence (P34949 whole entry): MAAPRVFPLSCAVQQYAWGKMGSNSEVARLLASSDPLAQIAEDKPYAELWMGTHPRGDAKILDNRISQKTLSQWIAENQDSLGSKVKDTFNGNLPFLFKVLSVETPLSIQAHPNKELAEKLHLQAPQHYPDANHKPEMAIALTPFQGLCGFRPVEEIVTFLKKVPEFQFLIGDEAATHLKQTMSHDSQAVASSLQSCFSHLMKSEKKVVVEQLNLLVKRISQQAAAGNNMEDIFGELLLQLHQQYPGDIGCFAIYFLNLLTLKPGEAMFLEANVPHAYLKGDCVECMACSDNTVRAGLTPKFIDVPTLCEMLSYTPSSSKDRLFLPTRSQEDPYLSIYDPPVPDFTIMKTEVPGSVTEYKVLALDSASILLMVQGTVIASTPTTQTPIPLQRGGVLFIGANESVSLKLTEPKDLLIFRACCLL

INS1 = test: beta cell apoptosis inhibitors, cytokine rescue, dose response, luminescence, retest (AID 449756); format: functional, cell-based; conditions: Rattus norvegicus;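 also: cell death triggered by IL-1 beta plus TNF-alpha plus IFN-gamma mixture; protective hits raise ATP signal compared with cytokine alone wells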
[24] = Luminescence Cell-Based Dose Response HTS to Identify Inhibitors of 5'UTR Stem-Loop Driven Prion Protein mRNA Translation in H4 Neuroglioblastoma Cells. [Related pubchem assays: 1827 (Project Summary), 1813 (Primary HTS)]; format: functional
[25] = inhibitors of firefly luciferase expression or activity, dose response, H4 neuroglioma cells, luminescence (AID 1990); format: functional, cell-based
[26] = inhibitors of SNCA 5'UTR-driven reporter translation, confirmation, H4 neuroglioma cells, luminescence (AID 1988); format: functional, cell-based
cells = format: functional
[27] = Vero E6 cell cytotoxicity, dose response, cytotoxicity control for non-replicating M. tuberculosis project, secondary assay (AID 492998); format: functional, VeroE6; conditions: Vero C1008
[28] = growth suppression of PTEN-null colon cells, dose response, cell-based, HCT116 PTEN knockout (AID 1047); format: functional;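 also: HCT116 colon tumor cells with PTEN knocked out; cells exposed to compound for 60 hours before readout; potency for loss of cell viability measured by luminescence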
[29] = cytotoxicity in HEK-293T cells, dose response, cytotoxicity control for TCR NF-kB inhibitor project, luminescence, T-cell screen hits (AID 489026); format: functional, cell-based;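 also: cells exposed to compound about 14 hours before the viability readout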
[30] = growth suppression of beta-catenin-knockout colon cells, dose response, cell-based, HCT116, human colon tumor (AID 1045); format: functional;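 also: HCT116 colon tumor cells with beta catenin knocked out; cells exposed to compound for 60 hours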
BJ [31] = test: cytotoxicity toward BJ-TERT-LT-ST fibroblasts, dose response, cell-based, RAS-independent, luminescence (AID 1935); format: functional; conditions: Homo sapiens;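 also: BJ fibroblasts immortalized with TERT plus LT and ST oncogenes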
[32] = cytotoxicity toward DRD oncogenic fibroblasts, dose response, cell-based, non-viral oncogenic, luminescence (AID 1934); format: functional; conditions: Homo sapiens
BJ [33] = test: cytotoxicity toward BJ-TERT fibroblasts, dose response, cell-based, RAS-independent, luminescence (AID 1933); format: functional; conditions: Homo sapiens
BJ [34] = test: cells; format: functional, cell-based; conditions: Homo sapiens
[35] = target: T3, Polyadenylate-binding protein 1 (Homo sapiens, UniProt P11940); test: PABP1 MLLE–PAM2 binding inhibitor potency, dose response, biochemical, fluorescence polarization, FITC-PAM2 peptide (AID 602259); format: functional; conditions: read-out: IC50_Mean
[36] = target: T3, Polyadenylate-binding protein 1; test: PABP1 MLLE–PAM2 interaction inhibitors, dose response, miRNA deadenylation inhibitor project, biochemical, fluorescence polarization, Cy5-PAM2 peptide, secondary (AID 602260); format: functional; conditions: read-out: IC50_Mean
Prothrombin = Prothrombin (Homo sapiens, UniProt P00734); test: Thrombin 1536 HTS Dose Response Confirmation. [Related pubchem assays: 1046 (Thrombin 1536 HTS; hits were confirmed in this assay)]; format: functional

Chain of Kallikrein-7 (P49862 whole entry): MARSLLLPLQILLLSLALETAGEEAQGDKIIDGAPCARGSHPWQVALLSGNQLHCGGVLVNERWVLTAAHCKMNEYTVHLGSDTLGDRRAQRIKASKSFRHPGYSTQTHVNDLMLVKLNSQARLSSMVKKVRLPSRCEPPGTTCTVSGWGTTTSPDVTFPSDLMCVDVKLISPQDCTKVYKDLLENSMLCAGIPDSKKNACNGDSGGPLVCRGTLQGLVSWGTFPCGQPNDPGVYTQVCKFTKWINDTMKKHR
Chain of Peroxisome proliferator-activated receptor gamma/Nuclear receptor coactivator 1 (P37231 whole entry): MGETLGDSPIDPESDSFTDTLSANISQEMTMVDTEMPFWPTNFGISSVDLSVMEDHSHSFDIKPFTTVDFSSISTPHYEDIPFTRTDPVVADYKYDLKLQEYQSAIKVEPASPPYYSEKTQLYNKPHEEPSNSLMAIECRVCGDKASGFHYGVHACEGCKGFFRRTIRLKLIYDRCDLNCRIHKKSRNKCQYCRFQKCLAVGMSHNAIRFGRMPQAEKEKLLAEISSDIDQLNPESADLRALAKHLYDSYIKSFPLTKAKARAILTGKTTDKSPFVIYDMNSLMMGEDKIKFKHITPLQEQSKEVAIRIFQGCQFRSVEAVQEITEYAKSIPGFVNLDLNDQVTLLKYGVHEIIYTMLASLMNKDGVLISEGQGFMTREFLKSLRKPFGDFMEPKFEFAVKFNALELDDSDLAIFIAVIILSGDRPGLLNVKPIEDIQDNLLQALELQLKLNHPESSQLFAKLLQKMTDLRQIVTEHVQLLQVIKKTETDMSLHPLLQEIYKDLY
Chain of Peroxisome proliferator-activated receptor gamma/Nuclear receptor coactivator 1 (Q15788 whole entry, further chain): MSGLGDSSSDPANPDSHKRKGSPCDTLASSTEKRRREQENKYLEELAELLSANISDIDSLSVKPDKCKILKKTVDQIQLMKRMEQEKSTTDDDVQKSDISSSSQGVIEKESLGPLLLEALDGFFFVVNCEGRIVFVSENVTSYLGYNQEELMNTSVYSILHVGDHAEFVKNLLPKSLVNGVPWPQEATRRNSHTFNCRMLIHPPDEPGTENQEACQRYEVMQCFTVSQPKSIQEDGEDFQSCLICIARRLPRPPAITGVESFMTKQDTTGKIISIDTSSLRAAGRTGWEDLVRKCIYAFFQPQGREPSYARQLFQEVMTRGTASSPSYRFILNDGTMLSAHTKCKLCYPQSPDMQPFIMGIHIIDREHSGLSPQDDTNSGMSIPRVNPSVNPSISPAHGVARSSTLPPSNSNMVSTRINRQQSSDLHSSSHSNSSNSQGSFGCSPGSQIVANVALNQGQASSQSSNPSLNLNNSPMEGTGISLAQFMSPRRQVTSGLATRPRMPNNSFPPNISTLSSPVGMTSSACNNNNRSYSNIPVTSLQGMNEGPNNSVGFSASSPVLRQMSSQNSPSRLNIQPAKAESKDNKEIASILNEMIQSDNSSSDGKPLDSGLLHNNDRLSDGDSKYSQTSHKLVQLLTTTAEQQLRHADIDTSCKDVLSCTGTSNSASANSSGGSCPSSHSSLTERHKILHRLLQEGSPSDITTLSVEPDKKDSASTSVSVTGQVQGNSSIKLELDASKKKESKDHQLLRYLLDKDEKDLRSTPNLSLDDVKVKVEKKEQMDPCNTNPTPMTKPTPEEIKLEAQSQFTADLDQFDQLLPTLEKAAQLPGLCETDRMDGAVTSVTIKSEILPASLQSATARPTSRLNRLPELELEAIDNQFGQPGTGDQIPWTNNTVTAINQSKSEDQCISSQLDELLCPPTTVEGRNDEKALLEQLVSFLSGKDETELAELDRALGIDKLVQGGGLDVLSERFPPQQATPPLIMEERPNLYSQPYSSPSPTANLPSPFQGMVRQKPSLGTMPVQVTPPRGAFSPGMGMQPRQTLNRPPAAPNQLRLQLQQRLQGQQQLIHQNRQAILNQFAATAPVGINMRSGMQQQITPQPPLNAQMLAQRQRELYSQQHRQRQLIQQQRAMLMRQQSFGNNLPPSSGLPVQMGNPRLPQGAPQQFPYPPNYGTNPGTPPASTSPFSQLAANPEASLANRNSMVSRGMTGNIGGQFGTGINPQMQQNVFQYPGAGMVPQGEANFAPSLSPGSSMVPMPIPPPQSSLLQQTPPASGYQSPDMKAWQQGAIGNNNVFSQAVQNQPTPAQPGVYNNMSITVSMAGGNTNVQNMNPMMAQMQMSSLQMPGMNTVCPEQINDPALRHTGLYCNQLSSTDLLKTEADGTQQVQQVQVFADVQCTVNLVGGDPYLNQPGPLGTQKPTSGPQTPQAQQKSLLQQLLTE
Chain of Peroxisome proliferator-activated receptor gamma/Nuclear receptor coactivator 3 (P37231 whole entry): as the sequence (P37231 whole entry) above
Chain of Peroxisome proliferator-activated receptor gamma/Nuclear receptor coactivator 3 (Q9Y6Q9 whole entry, further chain): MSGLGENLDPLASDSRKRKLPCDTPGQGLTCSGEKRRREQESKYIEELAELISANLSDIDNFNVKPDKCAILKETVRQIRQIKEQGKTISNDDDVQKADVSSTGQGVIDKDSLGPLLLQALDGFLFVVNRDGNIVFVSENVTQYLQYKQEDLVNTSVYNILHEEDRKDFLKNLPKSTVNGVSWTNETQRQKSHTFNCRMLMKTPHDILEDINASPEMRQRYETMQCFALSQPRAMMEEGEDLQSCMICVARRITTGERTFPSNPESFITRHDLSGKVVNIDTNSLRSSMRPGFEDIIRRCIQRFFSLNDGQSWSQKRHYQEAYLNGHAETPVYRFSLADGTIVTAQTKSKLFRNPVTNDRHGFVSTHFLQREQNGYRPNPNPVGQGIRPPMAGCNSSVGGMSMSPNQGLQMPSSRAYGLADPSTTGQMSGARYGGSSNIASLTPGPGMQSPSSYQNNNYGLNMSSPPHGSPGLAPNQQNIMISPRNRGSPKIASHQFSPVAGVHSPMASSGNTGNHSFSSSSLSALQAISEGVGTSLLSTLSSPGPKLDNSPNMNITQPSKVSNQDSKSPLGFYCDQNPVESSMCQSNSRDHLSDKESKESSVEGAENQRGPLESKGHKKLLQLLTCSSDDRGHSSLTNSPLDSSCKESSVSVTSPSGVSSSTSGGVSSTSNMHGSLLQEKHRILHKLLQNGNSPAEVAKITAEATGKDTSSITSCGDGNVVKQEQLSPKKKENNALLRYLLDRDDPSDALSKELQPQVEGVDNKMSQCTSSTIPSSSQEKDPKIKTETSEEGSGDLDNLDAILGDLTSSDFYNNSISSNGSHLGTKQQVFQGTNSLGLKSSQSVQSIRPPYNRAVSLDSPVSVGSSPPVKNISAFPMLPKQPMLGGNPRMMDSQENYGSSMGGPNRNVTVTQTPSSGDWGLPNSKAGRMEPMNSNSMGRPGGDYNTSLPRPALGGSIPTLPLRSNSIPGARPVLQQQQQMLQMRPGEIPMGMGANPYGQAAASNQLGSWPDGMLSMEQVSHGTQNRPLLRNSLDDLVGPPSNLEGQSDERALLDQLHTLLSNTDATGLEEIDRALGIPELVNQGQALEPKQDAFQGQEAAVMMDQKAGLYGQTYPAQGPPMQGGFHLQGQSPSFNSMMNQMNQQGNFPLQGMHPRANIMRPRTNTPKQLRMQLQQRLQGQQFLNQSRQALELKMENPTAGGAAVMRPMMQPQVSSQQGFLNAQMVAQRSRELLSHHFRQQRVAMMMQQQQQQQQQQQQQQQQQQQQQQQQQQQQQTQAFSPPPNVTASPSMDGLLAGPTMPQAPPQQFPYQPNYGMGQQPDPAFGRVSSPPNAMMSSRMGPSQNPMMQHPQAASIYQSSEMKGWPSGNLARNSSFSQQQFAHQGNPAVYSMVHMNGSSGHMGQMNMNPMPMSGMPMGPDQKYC
Chain of Cytochrome P450 3A4 (P08684 whole entry): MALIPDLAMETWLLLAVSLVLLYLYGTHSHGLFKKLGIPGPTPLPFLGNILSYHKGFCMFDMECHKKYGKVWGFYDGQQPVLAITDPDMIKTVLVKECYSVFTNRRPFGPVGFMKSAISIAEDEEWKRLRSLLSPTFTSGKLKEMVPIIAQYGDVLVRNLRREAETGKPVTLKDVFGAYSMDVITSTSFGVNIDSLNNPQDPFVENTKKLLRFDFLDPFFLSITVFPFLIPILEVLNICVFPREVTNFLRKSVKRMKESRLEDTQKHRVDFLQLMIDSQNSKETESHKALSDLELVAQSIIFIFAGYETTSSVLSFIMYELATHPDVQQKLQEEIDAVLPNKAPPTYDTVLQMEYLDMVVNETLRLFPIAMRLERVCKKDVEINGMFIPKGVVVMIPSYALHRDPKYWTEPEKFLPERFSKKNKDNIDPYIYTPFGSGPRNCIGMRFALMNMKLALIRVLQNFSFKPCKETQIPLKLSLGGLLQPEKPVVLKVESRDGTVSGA
Chain of FAD-linked sulfhydryl oxidase ALR (P55789 whole entry): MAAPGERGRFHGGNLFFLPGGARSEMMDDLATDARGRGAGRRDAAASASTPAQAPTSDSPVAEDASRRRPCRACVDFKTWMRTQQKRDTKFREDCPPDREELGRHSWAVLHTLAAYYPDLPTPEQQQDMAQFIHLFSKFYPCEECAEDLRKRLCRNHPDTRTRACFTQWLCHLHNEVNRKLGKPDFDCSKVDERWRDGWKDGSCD

CCCCc1cc(=O)oc2cc(C)cc(OCC(=O)N3CCC(C(=O)O)CC3)c12
EC50 (Kallikrein-7): > 7.72 µM (active)

Cc1cc2cc(CNC(=O)c3cc4ccccc4o3)ccc2n1C
EC50 [1]: 19.2 µM (not active) | EC50 [2]: 10.6 µM (inactive) | EC50 [3]: > 60 µM (not active) | EC50 [4]: 0.547 µM (active) | EC50 [5]: 11.1 µM (not active)

COc1ccc(Cl)cc1NC(=O)CN(C)C(=O)c1ccc(N2CCCCCC2)c([N+](=O)[O-])c1
CC50 [6]: > 40 µM (active)

CCN(CC)C(=O)c1oc2ccc(S(=O)(=O)N3CC(C)CC(C)C3)cc2c1C (centres undefined)
AC50 [7]: 1.02 µM (active) | EC50 (HEK293 [8]): 2.78 µM (active) | AC50 [9]: 6.58 µM (active) | IC50 [10]: 8.24 µM (active) | AC50 [11]: 3.55 µM (active) | IC50 (HEK293 [12]): 5.18 µM (active) | IC50 (HEK293 [13]): > 20 µM (inactive) | IC50 (HEK293 [14]): 4.79 µM (active)

Cc1ccc2[nH]c(C(=O)O)c(NC(=O)CN3CCN(c4cccc(C)c4C)CC3)c2c1
EC50 [15]: 5.05 µM (active) | CC50 [16]: 13.9 µM (active) | AC50 [17]: 16.3 µM (active) | EC50 [18]: > 50 µM (active)

CCCC(=O)Nc1ccc2nn(-c3ccc(OC)cc3)nc2c1
EC50 (Kallikrein-7): > 69.5 µM (inactive)

Cc1cc2nc(-c3ccc(SCc4ccccn4)nc3)[nH]c2cc1C
EC50 (Kallikrein-7): 12.9 µM (inactive)

CCOC(=O)c1sc(NC(=O)c2ccco2)nc1-c1ccccc1
EC50 [1]: > 79.4 µM (not active) | EC50 [2]: 24.3 µM (inactive) | EC50 [5]: 14.2 µM (not active)

COC(=O)Cc1c(C)c2c(O)cc(C)cc2oc1=O
EC50 [1]: > 79.4 µM (not active) | EC50 [2]: > 79.4 µM (inactive) | EC50 [5]: > 79.4 µM (not active)

COC(=O)C1=C(C)N(CC2CC2)C(=O)N[C@H]1c1ccc(Br)cc1
CC50 [16]: 35.1 µM (active) | AC50 [19]: 11.7 µM (active) | EC50 [18]: > 50 µM (active) | AC50 [20]: 14.7 µM (active) | AC50 [21]: 8.52 µM (active) | AC50 [22]: 7.14 µM (active)

CCc1nc2cc(CC(=O)O)ccc2o1
AC50 (Cytochrome P450 2C19): inconclusive | AC50 (Cytochrome P450 3A4): inconclusive

Oc1ccc(CNc2ccccc2)c2cccnc12
IC50 [23]: > 50 µM (not active) | AC50 (INS1): 14.4 µM (active)

CCc1cc2c(CN3CCN(Cc4ccccc4)CC3)cc(=O)oc2cc1O
EC50 (Kallikrein-7): > 69.5 µM (inactive)

CCOC(=O)/C=c1\s/c(=C\c2c(OC)ccc3ccccc23)c(=O)n1CC(=O)NCC1CCCO1 (centres undefined)
EC50 [24]: 12.3 µM (active) | EC50 [25]: 10.5 µM (active) | EC50 [26]: 8.43 µM (active) | CC50 [6]: 12.6 µM (active)

COc1ccccc1C(=O)N1CC2(C)CC1CC(C)(C)C2 (centres undefined)
EC50 [18]: > 50 µM (active)

CCCn1nnnc1NC(=O)c1cc(Cl)ccc1Cl
IC50 (cells): 5.95 µM (active) | CC50 [27]: > 20 µM (active)

COc1ccc(C(=O)NC(=S)NCc2ccccc2)cc1
AC50 (Cytochrome P450 3A4): inconclusive

Cn1nc(CC(=O)Nc2ccc(N3CCN(C(=O)OC(C)(C)C)CC3)cc2)c2ccccc2c1=O
EC50 [28]: 8.04 µM (active) | IC50 [29]: > 80 µM (inactive) | EC50 [30]: 5.89 µM (active) | IC50 [10]: 4.32 µM (active)

COc1cc(Nc2c3c(nc4ccccc24)CCC3)cc(OC)c1OC
EC50 (BJ [31]): 18.5 µM (inconclusive) | EC50 [32]: 2.38 µM (active) | EC50 (BJ [33]): 2.86 µM (active) | EC50 (BJ [34]): 42.7 µM (inconclusive)

CC(=O)N1C(=O)/C(=C2\SC(=S)N(c3c(C)n(C)n(-c4ccccc4)c3=O)C2=O)c2ccccc21
IC50 [23]: > 50 µM (not active) | IC50 [35]: > 66 µM (inactive) | IC50 [36]: > 66 µM (inactive) | IC50 (Prothrombin): 8.97 µM (active)

Cn1c(=O)cc(SCC(=O)NCC2CCCO2)c2ccc(Cl)cc21 (centres undefined)
EC50 [1]: > 79.4 µM (not active) | EC50 [2]: > 79.4 µM (inactive) | EC50 [5]: > 26.5 µM (not active)

Clc1cccc(-c2ccc(/C=N/c3ccc(N4CCOCC4)cc3)o2)c1
EC50 [1]: > 79.4 µM (not active) | EC50 [2]: > 79.4 µM (inactive) | EC50 [5]: 28.6 µM (not active)
